From patent US20240109917A1 (ACTELION PHARMACEUTICALS LTD, priority 2020, published 2024) come the findings set out here.

Like-named read-outs stand apart in the source and are kept apart here. Bounds are passed on as bounds.

Assay [1] deals with Tb-labeled inactive PDGFRβ (Homo sapiens (Human), UniProt P09619). In words: PDGFRβ LanthaScreen Assay. In kind it is binding. Conditions: read-out: PDGFR Lantha IC50.
The next assay addresses PDGFRβ (Rattus norvegicus (Rat), UniProt Q05030). Briefly: PDGFRβ Cellular Assay (PDGFRb P-Y751 HTRF in A10 cells stimulated with PDGF-BB). In kind it is cell-based. The method, boiled down: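 Phospho-Y751 PDGFRβ was measured by HTRF in lysates of A10 rat cells. Cells received compound for 3 hours before PDGF-BB stimulation (100 ng/mL working stock).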

Chain of Tb-labeled inactive PDGFRβ (P09619 33-1106): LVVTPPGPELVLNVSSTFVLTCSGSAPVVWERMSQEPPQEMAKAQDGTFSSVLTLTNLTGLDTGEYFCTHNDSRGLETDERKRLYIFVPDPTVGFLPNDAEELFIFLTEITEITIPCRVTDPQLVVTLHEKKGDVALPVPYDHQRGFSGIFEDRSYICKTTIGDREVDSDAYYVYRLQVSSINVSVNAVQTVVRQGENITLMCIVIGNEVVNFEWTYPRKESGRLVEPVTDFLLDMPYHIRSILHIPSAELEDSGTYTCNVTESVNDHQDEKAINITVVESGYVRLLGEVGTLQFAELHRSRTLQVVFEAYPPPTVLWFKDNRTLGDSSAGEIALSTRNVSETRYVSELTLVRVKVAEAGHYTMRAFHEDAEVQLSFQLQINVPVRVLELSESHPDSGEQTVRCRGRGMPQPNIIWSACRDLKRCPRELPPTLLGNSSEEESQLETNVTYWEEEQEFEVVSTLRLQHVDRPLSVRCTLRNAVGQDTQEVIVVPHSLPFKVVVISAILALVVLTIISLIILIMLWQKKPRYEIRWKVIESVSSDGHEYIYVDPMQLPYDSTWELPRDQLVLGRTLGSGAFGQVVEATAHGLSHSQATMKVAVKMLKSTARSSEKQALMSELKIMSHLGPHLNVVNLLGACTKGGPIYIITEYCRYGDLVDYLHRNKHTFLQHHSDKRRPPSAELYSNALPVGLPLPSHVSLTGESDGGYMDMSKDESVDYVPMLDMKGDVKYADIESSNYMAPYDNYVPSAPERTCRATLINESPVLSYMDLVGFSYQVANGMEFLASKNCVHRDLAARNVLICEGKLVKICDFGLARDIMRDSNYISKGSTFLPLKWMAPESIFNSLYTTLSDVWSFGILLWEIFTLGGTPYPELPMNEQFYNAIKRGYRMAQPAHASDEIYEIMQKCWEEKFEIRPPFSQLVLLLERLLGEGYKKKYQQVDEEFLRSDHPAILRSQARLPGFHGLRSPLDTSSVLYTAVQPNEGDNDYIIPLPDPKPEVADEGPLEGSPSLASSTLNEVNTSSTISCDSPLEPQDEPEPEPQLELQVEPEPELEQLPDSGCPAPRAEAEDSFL
Chain of PDGFRβ (Q05030 32-1097): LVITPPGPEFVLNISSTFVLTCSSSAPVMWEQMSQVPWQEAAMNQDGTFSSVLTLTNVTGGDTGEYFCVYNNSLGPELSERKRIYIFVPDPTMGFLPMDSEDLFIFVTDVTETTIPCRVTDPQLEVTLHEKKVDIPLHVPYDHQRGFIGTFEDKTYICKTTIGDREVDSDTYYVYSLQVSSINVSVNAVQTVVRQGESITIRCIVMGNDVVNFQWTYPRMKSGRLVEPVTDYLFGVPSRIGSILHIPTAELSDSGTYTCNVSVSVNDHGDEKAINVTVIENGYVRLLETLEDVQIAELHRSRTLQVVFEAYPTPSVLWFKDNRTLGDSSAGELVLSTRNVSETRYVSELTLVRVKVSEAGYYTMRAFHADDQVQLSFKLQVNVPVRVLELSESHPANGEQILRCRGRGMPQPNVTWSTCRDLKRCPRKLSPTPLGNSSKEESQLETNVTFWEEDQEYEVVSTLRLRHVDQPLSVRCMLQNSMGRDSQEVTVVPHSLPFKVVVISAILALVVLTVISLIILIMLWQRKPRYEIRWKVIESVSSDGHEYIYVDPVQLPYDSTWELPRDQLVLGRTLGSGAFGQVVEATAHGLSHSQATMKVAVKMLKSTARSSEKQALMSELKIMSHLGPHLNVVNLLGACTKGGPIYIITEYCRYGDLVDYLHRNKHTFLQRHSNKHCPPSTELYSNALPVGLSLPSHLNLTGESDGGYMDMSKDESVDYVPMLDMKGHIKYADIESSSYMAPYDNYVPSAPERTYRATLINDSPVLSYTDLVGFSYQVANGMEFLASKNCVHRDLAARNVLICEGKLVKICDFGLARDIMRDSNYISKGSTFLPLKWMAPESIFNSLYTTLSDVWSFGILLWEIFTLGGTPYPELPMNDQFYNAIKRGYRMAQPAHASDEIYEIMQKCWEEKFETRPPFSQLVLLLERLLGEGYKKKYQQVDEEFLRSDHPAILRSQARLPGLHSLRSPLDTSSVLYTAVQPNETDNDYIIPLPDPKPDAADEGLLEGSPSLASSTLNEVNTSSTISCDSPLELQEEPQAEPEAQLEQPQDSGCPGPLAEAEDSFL

In the case of `COc1ncccc1-c1cn2ncc(C(=O)Nc3cc(NC(=O)CN4C[C@H](CO)OC(C)(C)C4)cnc3C)c2s1` [Example 379, (R)—N-(5-(2-(6-(hydroxymethyl)-2,2-dimethylmorpholino)acetamido)-2-methylpyridin-3-yl)-2-(2-methoxypyridin-3-yl)pyrazolo[5,1-b]thiazole-7-carboxamide], the IC50 in assay [1] is 2.7 nM; at PDGFRβ (read-out: PDGFR Cellular IC50) it was 9.2 nM.
On the same counts, the results for `COCCn1cc(-c2cn3ncc(C(=O)Nc4cc(NC(=O)[C@@H]5CCCN5C(C)C)cnc4C)c3s2)cn1` [Example 343, (S)—N-(5-(1-isopropylpyrrolidine-2-carboxamido)-2-methylpyridin-3-yl)-2-(1-(2-methoxyethyl)-1H-pyrazol-4-yl)pyrazolo[5,1-b]thiazole-7-carboxamide] are 84.8 nM and 47.9 nM.
The matching figures for `Cc1ncc(NC(=O)CN2CC3(CCOCC3)C2)cc1NC(=O)c1cnn2cc(-c3cnn4c3OCCC4)sc12` [Example 406, N-(5-(2-(7-oxa-2-azaspiro[3.5]nonan-2-yl)acetamido)-2-methylpyridin-3-yl)-2-(6,7-dihydro-5H-pyrazolo[5,1-b][1,3]oxazin-3-yl)pyrazolo[5,1-b]thiazole-7-carboxamide]: 2.3 nM and 18.9 nM.
For the molecule `COc1ncccc1-c1cn2ncc(C(=O)Nc3cc(NC(=O)CN4CCC4)cnc3C)c2s1` [Example 397, N-(5-(2-(azetidin-1-yl)acetamido)-2-methylpyridin-3-yl)-2-(2-methoxypyridin-3-yl)pyrazolo[5,1-b]thiazole-7-carboxamide], the half-inhibitory concentration (IC50) in assay [1] was determined as 22.1 nM; against PDGFRβ (PDGFR Cellular IC50) it was 7.6 nM.
For the molecule `COCCn1cc(-c2cn3ncc(C(=O)Nc4cc(NC(=O)CN5C[C@H]6CC[C@@H]5C6)cnc4C)c3s2)cn1` [Example 334, N-(5-(2-((1R,4S)-2-azabicyclo[2.2.1]heptan-2-yl)acetamido)-2-methylpyridin-3-yl)-2-(1-(2-methoxyethyl)-1H-pyrazol-4-yl)pyrazolo[5,1-b]thiazole-7-carboxamide], the IC50 in assay [1] amounted to 9.1 nM; against PDGFRβ (PDGFR Cellular IC50) it was 11.7 nM.
As to `COCCn1cc(-c2cn3ncc(C(=O)Nc4cc(NC(=O)CN5C6CCC5CC6)cnc4C)c3s2)cn1` [Example 340, N-(5-(2-(7-azabicyclo[2.2.1]heptan-7-yl)acetamido)-2-methylpyridin-3-yl)-2-(1-(2-methoxyethyl)-1H-pyrazol-4-yl)pyrazolo[5,1-b]thiazole-7-carboxamide], the results for the IC50 (in assay [1]; on PDGFRβ (read-out: PDGFR Cellular IC50)) were 7.5 nM and 6.5 nM, respectively.
As to `COCCn1cc(-c2cn3ncc(C(=O)Nc4cc(NC(=O)CN5CCC56CCC6)cnc4C)c3s2)cn1` [Example 333, N-(5-(2-(1-azaspiro[3.3]heptan-1-yl)acetamido)-2-methylpyridin-3-yl)-2-(1-(2-methoxyethyl)-1H-pyrazol-4-yl)pyrazolo[5,1-b]thiazole-7-carboxamide], the IC50 in assay [1] worked out at 3.1 nM; on PDGFRβ (read-out: PDGFR Cellular IC50) it was 3.3 nM.
For the molecule `Cc1ncc(NC(=O)C2CCN(C(C)C)C2)cc1NC(=O)c1cnn2cc(-c3cnn4c3OCCC4)sc12` (stereo not shown) [Example 350, 2-(6,7-dihydro-5H-pyrazolo[5,1-b][1,3]oxazin-3-yl)-N-(5-(1-isopropylpyrrolidine-3-carboxamido)-2-methylpyridin-3-yl)pyrazolo[5,1-b]thiazole-7-carboxamide], the IC50 in assay [1] came out at 4.1 nM; at PDGFRβ (read-out: PDGFR Cellular IC50) it was 73.3 nM.
On the same counts, the results for `COc1cccc(-c2cn3ncc(C(=O)Nc4cc(NC(=O)CN5C[C@H](C)O[C@@H](C)C5)cnc4C)c3s2)n1` (relative stereo) [Example 386, N-(5-(2-(trans-2,6-dimethylmorpholino)acetamido)-2-methylpyridin-3-yl)-2-(6-methoxypyridin-2-yl)pyrazolo[5,1-b]thiazole-7-carboxamide] are 2.5 nM and 3.8 nM.
`COc1ncccc1-c1cn2ncc(C(=O)Nc3cc(C(=O)NCCN4CC(C)(C)C4)cnc3C)c2s1` [Example 387, N-(5-((2-(3,3-dimethylazetidin-1-yl)ethyl)carbamoyl)-2-methylpyridin-3-yl)-2-(2-methoxypyridin-3-yl)pyrazolo[5,1-b]thiazole-7-carboxamide]: the IC50 came to 1.5 nM in assay [1] and 6.9 nM on PDGFRβ (read-out: PDGFR Cellular IC50).
Turning to `Cc1ncc(NC(=O)CN2CCC3(CC2)CC3)cc1NC(=O)c1cnn2cc(-c3cnn(CCO)c3)sc12` [Example 31, N-(5-(2-(6-azaspiro[2.5]octan-6-yl)acetamido)-2-methylpyridin-3-yl)-2-(1-(2-hydroxyethyl)-1H-pyrazol-4-yl)pyrazolo[5,1-b]thiazole-7-carboxamide], the IC50 in assay [1] is 5.1 nM; at PDGFRβ (read-out: PDGFR Cellular IC50) it was 11.1 nM.
On to `Cc1ncc(NC(=O)C2CCN(C(C)C)C2)cc1NC(=O)c1cnn2cc(-c3cnn(C)c3C)sc12` (stereo not shown) [Example 356, 2-(1,5-dimethyl-1H-pyrazol-4-yl)-N-(5-(1-isopropylpyrrolidine-3-carboxamido)-2-methylpyridin-3-yl)pyrazolo[5,1-b]thiazole-7-carboxamide], for which the half-inhibitory concentration (IC50) turned out to be 17.9 nM in assay [1] and 74.6 nM against PDGFRβ (PDGFR Cellular IC50).
Take `COc1ccncc1-c1cn2ncc(C(=O)Nc3cc(NC(=O)CN4C[C@H](C)O[C@@H](C)C4)cnc3C)c2s1` (relative stereo) [Example 385, N-(5-(2-(trans-2,6-dimethylmorpholino)acetamido)-2-methylpyridin-3-yl)-2-(4-methoxypyridin-3-yl)pyrazolo[5,1-b]thiazole-7-carboxamide]: the IC50 in assay [1] amounted to 4.9 nM; on PDGFRβ (read-out: PDGFR Cellular IC50), 9.5 nM.
Consider `Cc1ncc(NC(=O)CN2CCC(C)(C)C2)cc1NC(=O)c1cnn2cc(-c3cnn(CCO)c3)sc12` [Example 28, N-(5-(2-(3,3-dimethylpyrrolidin-1-yl)acetamido)-2-methylpyridin-3-yl)-2-(1-(2-hydroxyethyl)-1H-pyrazol-4-yl)pyrazolo[5,1-b]thiazole-7-carboxamide], for which the results for the IC50 (in assay [1]; on PDGFRβ (read-out: PDGFR Cellular IC50)) were 4.2 nM and 13.6 nM, respectively.
With `Cc1ncc(NC(=O)C2CN(C(C)C)C2)cc1NC(=O)c1cnn2cc(-c3cn(C)nc3C)sc12` [Example 354, 2-(1,3-dimethyl-1H-pyrazol-4-yl)-N-(5-(1-isopropylazetidine-3-carboxamido)-2-methylpyridin-3-yl)pyrazolo[5,1-b]thiazole-7-carboxamide], the figures for the IC50 (in assay [1]; at PDGFRβ (read-out: PDGFR Cellular IC50)) were 4.3 nM and 78.8 nM, respectively.
As to `Cc1ncc(NC(=O)CN2CCC3(CC3)C2)cc1NC(=O)c1cnn2cc(-c3cnn(CCO)c3)sc12` [Example 32, N-(5-(2-(5-azaspiro[2.4]heptan-5-yl)acetamido)-2-methylpyridin-3-yl)-2-(1-(2-hydroxyethyl)-1H-pyrazol-4-yl)pyrazolo[5,1-b]thiazole-7-carboxamide], the IC50 in assay [1] amounted to 5.5 nM; on PDGFRβ (read-out: PDGFR Cellular IC50), 20.5 nM.
On the same counts, the results for `Cc1ncc(NC(=O)CN2C[C@H](C)O[C@@H](C)C2)cc1NC(=O)c1cnn2cc(-c3cnc(N)c(F)c3)sc12` (relative stereo) [Example 372, 2-(6-amino-5-fluoropyridin-3-yl)-N-(5-(2-(trans-2,6-dimethylmorpholino)acetamido)-2-methylpyridin-3-yl)pyrazolo[5,1-b]thiazole-7-carboxamide] are 7.7 nM and 21.2 nM.
Regarding `Cc1ncc(NC(=O)CN2CCC[C@@H]2C)cc1NC(=O)c1cnn2cc(-c3ccnc(N4CCOCC4)c3)sc12` [Example 352, (S)—N-(2-methyl-5-(2-(2-methylpyrrolidin-1-yl)acetamido)pyridin-3-yl)-2-(2-morpholinopyridin-4-yl)pyrazolo[5,1-b]thiazole-7-carboxamide], the values for the 50% inhibitory concentration (IC50) (in assay [1]; at PDGFRβ (read-out: PDGFR Cellular IC50)) were 4.7 nM and 2.8 nM, respectively.
The matching figures for `COCCn1cc(-c2cn3ncc(C(=O)Nc4cc(NC(=O)CN5CCCCC5)cnc4C)c3s2)cn1` [Example 338, 2-(1-(2-methoxyethyl)-1H-pyrazol-4-yl)-N-(2-methyl-5-(2-(piperidin-1-yl)acetamido)pyridin-3-yl)pyrazolo[5,1-b]thiazole-7-carboxamide]: 4.8 nM and 4.6 nM.
Take `Cc1ncc(NC(=O)[C@@H]2CCCN2C)cc1NC(=O)c1cnn2cc(-c3cnn4c3OCCC4)sc12` [Example 349, (S)-2-(6,7-dihydro-5H-pyrazolo[5,1-b][1,3]oxazin-3-yl)-N-(2-methyl-5-(1-methylpyrrolidine-2-carboxamido)pyridin-3-yl)pyrazolo[5,1-b]thiazole-7-carboxamide]: the figures for the IC50 (in assay [1]; on PDGFRβ (read-out: PDGFR Cellular IC50)) were 8.7 nM and 9.1 nM, respectively.
Consider `Cc1ncc(NC(=O)CN2C[C@@H](CO)OC(C)(C)C2)cc1NC(=O)c1cnn2cc(-c3cnn(C)c3)sc12` [Example 377, (S)—N-(5-(2-(6-(hydroxymethyl)-2,2-dimethylmorpholino)acetamido)-2-methylpyridin-3-yl)-2-(1-methyl-1H-pyrazol-4-yl)pyrazolo[5,1-b]thiazole-7-carboxamide], for which the IC50 in assay [1] stood at 6.2 nM; on PDGFRβ (read-out: PDGFR Cellular IC50) it was 119 nM.
Turning to `Cc1ncc(C(=O)NCCN2CCCC2(C)C)cc1NC(=O)c1cnn2cc(-c3cnn(Cc4cc(O)no4)c3)sc12` [Example 363, N-(5-((2-(2,2-dimethylpyrrolidin-1-yl)ethyl)carbamoyl)-2-methylpyridin-3-yl)-2-(1-((3-hydroxyisoxazol-5-yl)methyl)-1H-pyrazol-4-yl)pyrazolo[5,1-b]thiazole-7-carboxamide], the values for the IC50 (in assay [1]; on PDGFRβ (read-out: PDGFR Cellular IC50)) were 14.1 nM and greater than 2000 nM, respectively.
Regarding `Cc1ncc(NC(=O)CN2CC3CCC(C2)O3)cc1NC(=O)c1cnn2cc(-c3cc[nH]c3)sc12` [Example 366, N-(5-(2-(8-oxa-3-azabicyclo[3.2.1]octan-3-yl)acetamido)-2-methylpyridin-3-yl)-2-(1H-pyrrol-3-yl)pyrazolo[5,1-b]thiazole-7-carboxamide], the figures for the concentration for half-maximal inhibition (IC50) (in assay [1]; at PDGFRβ (read-out: PDGFR Cellular IC50)) were 2.5 nM and 7.7 nM, respectively.
